Source: the NIST ThermoML archive (doi:10.1021/je025610o)

Assays:
[1] = 100 kPa, Liquid, Capillary tube (Ostwald / Ubbelohde) method
[2] = xn = mol fraction of the nth substance listed; conditions: 100 kPa, Liquid; for thermal conductivity: Hot wire method

OCCO [1,2-ethanediol]
[1]
Conditions | viscosity [mPa·s]
295.55 K | 19.1
313.05 K | 9.74
333.1 K | 5.24
353.05 K | 3.13
372.15 K | 2.06
392.45 K | 1.44
412.25 K | 1.07
428.3 K | 0.867

OCCO [1,2-ethanediol] + O
[2]
Conditions | mass density [kg/m3] | thermal conductivity [W/m/K] | viscosity [mPa·s]
296.4 K, x1 = 0.25 | 1068 | – | –
296.45 K, x1 = 0.25 | – | – | 3.69
297.05 K, x1 = 0.5 | 1094 | – | 7.61
297.35 K, x1 = 0.75 | 1106 | – | 12.3
298.5 K, x1 = 0.75 | – | 0.269 | –
303.4 K, x1 = 0.25 | – | 0.391 | –
312.3 K, x1 = 0.5 | – | 0.316 | –
313.05 K, x1 = 0.25 | 1058 | – | 2.29
313.05 K, x1 = 0.5 | 1083 | – | 4.49
313.05 K, x1 = 0.75 | 1094 | – | 6.97
323.6 K, x1 = 0.25 | – | 0.4 | –
324.2 K, x1 = 0.75 | – | 0.272 | –
324.4 K, x1 = 0.5 | – | 0.314 | –
333.05 K, x1 = 0.25 | 1045 | – | 1.47
333.1 K, x1 = 0.5 | 1069 | – | 2.62
333.1 K, x1 = 0.75 | 1080 | – | 3.88
347.5 K, x1 = 0.75 | – | 0.277 | –
347.7 K, x1 = 0.5 | – | 0.324 | –
348.6 K, x1 = 0.25 | – | 0.416 | –
353.05 K, x1 = 0.25 | 1030 | – | 0.99
353.05 K, x1 = 0.5 | 1054 | – | 1.7
353.05 K, x1 = 0.75 | 1065 | – | 2.42
371.9 K, x1 = 0.75 | – | 0.281 | –
372 K, x1 = 0.25 | – | 0.423 | –
372.8 K, x1 = 0.5 | – | 0.33 | –
373.45 K, x1 = 0.75 | 1049 | – | 1.62
374.85 K, x1 = 0.25 | 1013 | – | –
376.05 K, x1 = 0.5 | 1035 | – | –
378.85 K, x1 = 0.25 | – | – | 0.689
380.05 K, x1 = 0.5 | – | – | 1.07
383.35 K, x1 = 0.75 | 1041 | – | 1.37
390.25 K, x1 = 0.5 | 1023 | – | –
393.2 K, x1 = 0.75 | 1033 | – | 1.18
394.25 K, x1 = 0.5 | – | – | 0.87
395.9 K, x1 = 0.25 | – | 0.428 | –
396.8 K, x1 = 0.75 | – | 0.28 | –
396.95 K, x1 = 0.25 | 995.5 | – | –
397 K, x1 = 0.5 | – | 0.332 | –
400.95 K, x1 = 0.25 | – | – | 0.518
403.15 K, x1 = 0.75 | 1025 | – | 1.02
404.75 K, x1 = 0.75 | 1023 | – | –
406.05 K, x1 = 0.5 | 1010 | – | –
407.75 K, x1 = 0.75 | – | – | 0.978
410.05 K, x1 = 0.5 | – | – | 0.706
413.15 K, x1 = 0.75 | 1016 | – | 0.903
417.15 K, x1 = 0.25 | 977.4 | – | –
418.35 K, x1 = 0.75 | 1012 | – | –
419.9 K, x1 = 0.75 | – | 0.279 | –
421 K, x1 = 0.25 | – | 0.432 | –
421.15 K, x1 = 0.25 | – | – | 0.418
421.7 K, x1 = 0.5 | – | 0.32 | –
422.35 K, x1 = 0.75 | – | – | 0.806
423.55 K, x1 = 0.5 | 994.5 | – | –
427.55 K, x1 = 0.5 | – | – | 0.573
431.55 K, x1 = 0.25 | 964.9 | – | –
431.95 K, x1 = 0.75 | 1000 | – | –
435.55 K, x1 = 0.25 | – | – | 0.366
435.95 K, x1 = 0.75 | – | – | 0.691
436.65 K, x1 = 0.5 | 982.5 | – | –
440.65 K, x1 = 0.5 | – | – | 0.5
441.6 K, x1 = 0.75 | – | 0.276 | –
445.85 K, x1 = 0.75 | 987 | – | –
449.85 K, x1 = 0.75 | – | – | 0.594

OCCOCCO [diethylene glycol]
[1]
Conditions | viscosity [mPa·s]
294.2 K | 35.1
313.05 K | 15.1
333.05 K | 7.64
353.05 K | 4.41
373.6 K | 2.76
393.4 K | 1.92
413.25 K | 1.41
428.15 K | 1.15
